Source: PubChem BioAssay (NCI)
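Exposure lasted 48 hours, with cells grown in 96-well plates and compounds tested at five concentrations. TGI: concentration producing complete growth inhibition.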

Key:
Assay in all cases: inhibition of tumour cell growth, NCI panel, 48 h
[1] = tested on: UACC-62 melanoma
[2] = tested on: CCRF-CEM leukemia
[3] = tested on: HT29 colon
[4] = tested on: SW-620 colon
[5] = tested on: CAKI-1 renal
[6] = tested on: MDA-MB-231 breast
[7] = tested on: UACC-257 melanoma
[8] = tested on: MALME-3M melanoma
[9] = tested on: T-47D breast
[10] = tested on: U251 CNS
[11] = tested on: SF-268 CNS
[12] = tested on: SK-MEL-5 melanoma
[13] = tested on: A498 renal
[14] = tested on: KM12 colon
[15] = tested on: DU-145 prostate
[16] = tested on: BT-549 breast
[17] = tested on: NCI-H23 lung
[18] = tested on: M14 melanoma
[19] = tested on: NCI-H226 lung
[20] = tested on: PC-3 prostate
[21] = tested on: HCT-15 colon
[22] = tested on: EKVX NSCLC
[23] = tested on: HOP-92 NSCLC
[24] = tested on: SF-539 CNS
[25] = tested on: SNB-19 CNS
[26] = tested on: SK-MEL-28 melanoma
[27] = tested on: SK-MEL-2 melanoma
[28] = tested on: NCI-H460 lung
[29] = tested on: HCT-116 colon
[30] = tested on: HCC-2998 colon
[31] = tested on: HS 578T breast
[32] = tested on: SNB-75 CNS
[33] = tested on: HL-60(TB) leukemia
[34] = tested on: NCI-H522 lung
[35] = tested on: OVCAR-5 ovarian
[36] = tested on: OVCAR-8 ovarian
[37] = tested on: OVCAR-4 ovarian
[38] = tested on: OVCAR-3 ovarian
[39] = tested on: IGROV1 ovarian
[40] = tested on: NCI/ADR-RES ovarian
[41] = tested on: RXF 393 renal
[42] = tested on: SK-OV-3 ovarian
[43] = tested on: SF-295 CNS
[44] = tested on: LOX IMVI melanoma
[45] = tested on: K-562 leukemia
[46] = tested on: HOP-62 NSCLC
[47] = tested on: MDA-MB-435
[48] = tested on: A549 NSCLC
[49] = tested on: MCF7 breast
[50] = tested on: UO-31 renal
[51] = tested on: 786-0 renal
[52] = tested on: MDA-N
[53] = tested on: RPMI-8226 leukemia
[54] = tested on: TK-10 renal
[55] = tested on: COLO 205 colon
[56] = tested on: SN12C renal
[57] = tested on: MOLT-4 leukemia
[58] = tested on: ACHN renal
[59] = tested on: SR leukemia

With `O=c1sc2c(s1)-c1sc(=O)sc1SS2` the TGI [1] was greater than 100 µM, the TGI [2] was greater than 96 µM and the TGI [3] was greater than 56.9 µM. The TGI [4] was greater than 100 µM, the TGI [5] was greater than 100 µM and the TGI [6] was greater than 100 µM. For the same molecule, the TGI [7] was greater than 100 µM, the TGI [8] was greater than 100 µM and the TGI [9] was greater than 100 µM. It also gave a TGI [10] greater than 31.6 µM, a TGI [11] greater than 100 µM and a TGI [12] greater than 100 µM. For the same molecule, the TGI [13] was greater than 62.2 µM, the TGI [14] was greater than 100 µM and the TGI [15] was greater than 89.8 µM. For the same molecule, the TGI [16] was greater than 100 µM, the TGI [17] was greater than 60.5 µM and the TGI [18] was greater than 100 µM. The TGI [19] was greater than 73.1 µM, the TGI [20] was greater than 100 µM and the TGI [21] was greater than 31.6 µM. It also gave a TGI [22] greater than 100 µM, a TGI [23] greater than 100 µM and a TGI [24] of 99.1 µM. The TGI [25] was greater than 100 µM, the TGI [26] was greater than 100 µM and the TGI [27] was greater than 100 µM. For the same molecule, the TGI [28] was greater than 100 µM, the TGI [29] was greater than 100 µM and the TGI [30] was greater than 100 µM. It also gave a TGI [31] greater than 100 µM, a TGI [32] greater than 100 µM and a TGI [33] greater than 100 µM. For the same molecule, the TGI [34] was greater than 100 µM, the TGI [35] was greater than 75.3 µM and the TGI [36] was 48.9 µM. For the same molecule, the TGI [37] was greater than 100 µM, the TGI [38] was greater than 100 µM and the TGI [39] was greater than 100 µM. For the same molecule, the TGI [40] was greater than 76.3 µM, the TGI [41] was greater than 100 µM and the TGI [42] was greater than 100 µM. The TGI [43] was greater than 100 µM, the TGI [44] was greater than 100 µM and the TGI [45] was greater than 100 µM. It also gave a TGI [46] greater than 100 µM, a TGI [47] greater than 100 µM and a TGI [48] greater than 100 µM. It also gave a TGI [49] greater than 100 µM, a TGI [50] greater than 100 µM and a TGI [51] greater than 100 µM. For the same molecule, the TGI [52] was greater than 100 µM, the TGI [53] was greater than 100 µM and the TGI [54] was greater than 79.4 µM. It also gave a TGI [55] greater than 65 µM, a TGI [56] greater than 100 µM and a TGI [57] greater than 100 µM. For the same molecule, the TGI [58] was greater than 100 µM.
`Cc1cn(CCCCCCC2=NCCCN2)c(=O)[nH]c1=O` gave a TGI [1] greater than 100 µM, a TGI [2] greater than 100 µM and a TGI [3] greater than 100 µM. It also gave a TGI [4] greater than 100 µM, a TGI [5] greater than 100 µM and a TGI [6] greater than 100 µM. It also gave a TGI [7] greater than 100 µM, a TGI [8] greater than 100 µM and a TGI [9] greater than 100 µM. The TGI [10] was greater than 100 µM, the TGI [11] was greater than 100 µM and the TGI [12] was greater than 100 µM. It also gave a TGI [13] greater than 100 µM, a TGI [14] greater than 100 µM and a TGI [15] greater than 100 µM. The TGI [16] was greater than 100 µM, the TGI [17] was greater than 100 µM and the TGI [18] was greater than 100 µM. The TGI [19] was greater than 100 µM, the TGI [20] was greater than 100 µM and the TGI [21] was greater than 100 µM. It also gave a TGI [22] greater than 100 µM, a TGI [23] greater than 100 µM and a TGI [24] greater than 100 µM. The TGI [25] was greater than 100 µM, the TGI [26] was greater than 100 µM and the TGI [27] was greater than 100 µM. For the same molecule, the TGI [28] was greater than 100 µM, the TGI [29] was greater than 100 µM and the TGI [30] was greater than 100 µM. For the same molecule, the TGI [31] was greater than 100 µM, the TGI [32] was greater than 100 µM and the TGI [34] was greater than 100 µM. The TGI [35] was greater than 100 µM, the TGI [36] was greater than 100 µM and the TGI [37] was greater than 100 µM. It also gave a TGI [38] greater than 100 µM, a TGI [39] greater than 100 µM and a TGI [40] greater than 100 µM. For the same molecule, the TGI [41] was greater than 100 µM, the TGI [42] was greater than 100 µM and the TGI [43] was greater than 100 µM. The TGI [44] was greater than 100 µM, the TGI [45] was greater than 100 µM and the TGI [46] was greater than 100 µM. For the same molecule, the TGI [47] was greater than 100 µM, the TGI [48] was greater than 100 µM and the TGI [49] was greater than 100 µM. It also gave a TGI [50] greater than 100 µM, a TGI [51] greater than 100 µM and a TGI [52] greater than 100 µM. It also gave a TGI [53] greater than 100 µM, a TGI [54] greater than 100 µM and a TGI [55] greater than 100 µM. It also gave a TGI [56] greater than 100 µM, a TGI [57] greater than 100 µM and a TGI [58] greater than 100 µM.
In the case of `Cc1ccc(-n2cc(-c3ccc(Cl)cc3)c3c(N/N=C4\SCC(=O)N4C)ncnc32)cc1`, the TGI [1] is reported as 11.2 µM, the TGI [2] is reported as greater than 100 µM and the TGI [3] is reported as greater than 100 µM. For the same molecule, the TGI [4] was greater than 100 µM, the TGI [5] was 32.3 µM and the TGI [6] was 23.8 µM. The TGI [7] was 27.1 µM, the TGI [8] was 9.48 µM and the TGI [9] was greater than 100 µM. It also gave a TGI [10] of 36.5 µM, a TGI [11] greater than 100 µM and a TGI [12] of 15.5 µM. The TGI [13] was 31.3 µM, the TGI [14] was greater than 100 µM and the TGI [15] was greater than 100 µM. It also gave a TGI [16] of 82 µM, a TGI [17] of 45.7 µM and a TGI [18] of 19.5 µM. For the same molecule, the TGI [19] was greater than 100 µM, the TGI [20] was 10.9 µM and the TGI [21] was greater than 100 µM. The TGI [22] was greater than 100 µM, the TGI [23] was 8.24 µM and the TGI [24] was 33.9 µM. For the same molecule, the TGI [25] was 63.1 µM, the TGI [26] was 6.23 µM and the TGI [27] was 6.18 µM. It also gave a TGI [28] of 43.2 µM, a TGI [29] of 38.4 µM and a TGI [59] greater than 100 µM. It also gave a TGI [31] of 21.3 µM, a TGI [33] greater than 100 µM and a TGI [34] of 26.7 µM. The TGI [35] was greater than 100 µM, the TGI [36] was greater than 100 µM and the TGI [37] was 8.03 µM. For the same molecule, the TGI [38] was greater than 100 µM, the TGI [39] was greater than 100 µM and the TGI [40] was greater than 100 µM. For the same molecule, the TGI [41] was 48.1 µM, the TGI [42] was 13.8 µM and the TGI [43] was 9.37 µM. The TGI [44] was greater than 100 µM, the TGI [45] was greater than 100 µM and the TGI [46] was 98.8 µM. For the same molecule, the TGI [47] was 40 µM, the TGI [48] was 26.6 µM and the TGI [50] was greater than 100 µM. For the same molecule, the TGI [51] was 10.6 µM, the TGI [52] was 63.4 µM and the TGI [53] was greater than 100 µM. For the same molecule, the TGI [54] was 8.18 µM, the TGI [55] was 37.5 µM and the TGI [56] was greater than 100 µM. The TGI [57] was greater than 100 µM and the TGI [58] was greater than 100 µM.
